# Laboratory results from patent US11085016B1, “Method for screening bacteria capable of degrading ethylene oxide” (priority 2020, dated 2021).
# What was measured:
# [1] = Comparative experiment for the degradation of ethylene oxide (gas chromatography); settings: Example 3
# Procedure: The bacteria having a potential for degrading ethylene oxide which have not been subjected to the acclimatization steps and the strains capable of tolerating and degrading ethylene oxide obtained after the acclimatization steps were inoculated into activation medium, respectively, for activation, and cultured to a bacteria concentration of 10^10-10^12 cfu/mL in the culture.
# The activation medium was made as follows: Peptone 10 g, filled with distilled water to 1000 mL which was distributed into 400 mL. Then, sterilization was performed at 121° C. for 20 min. Thereafter, the temperature of the medium was cooled down to RT for storage. 160 mg and 320 mg of ethylene oxide was added, respectively, by using a sealed syringe to obtain two activation media containing different concentrations (400 mg/L and 800 mg/L, respectively) of ethylene oxide for the test of degrading capability of the ethylene oxide-degrading strains.
# Comparative experiment for the degradation of ethylene oxide was performed with the following test groups and control group.
# Test group 1: 5 mL of an activation culture of the bacteria capable of tolerating and degrading ethylene oxide was inoculated into 400 mL of activation media containing 400 mg/L (1A) and 800 mg/L (1B), respectively, of ethylene oxide. The amount of live bacteria in the medium was 10^8-10^10 cfu/mL.
# Test group 2: 5 mL of an activation culture of the bacteria having a potential for degrading ethylene oxide which have not been subjected to the acclimatization steps was inoculated into 400 mL of activation media containing 400 mg/L (2A) and 800 mg/L (2B), respectively, of ethylene oxide. The amount of live bacteria in the medium was 10^8-10^10 cfu/mL.
# Control group: 400 mL of activation media containing 400 mg/L (control group A) and 800 mg/L (control group B), respectively, of ethylene oxide with no bacteria strain inoculated.
# The test groups and control groups are placed together in an incubated for culturing at 37° C. for 48 h. […] The result of degradation was detected by gas chromatography. […]
# the subject samples to be analyzed were prepared by diluting samples from the treatment and control groups 5 times with deionized water;
# after the GC instrument is stabilized and under the same conditions, 2 μL each of the ethylene oxide standards and the diluted samples to be analyzed were injected into the GC instrument, wherein each sample was measured twice in parallel;
# qualitive determination was conducted according to the retention time and quantitative calculation on each peak area was performed to take the average value; […]
# the degradation rate of ethylene oxide for each sample was calculated according to the following formula: Degradation Rate (%)=(Control Group Concentration−Treatment Group Concentration)/Control Group Concentration×100. […]
# [2] = Ethylene oxide degradation acclimatization: growth on 800 mg/L ethylene oxide plates with decreasing carbon source; design: key: + normal growth; ± low growth
# Procedure: (§1) Ethylene oxide degradation acclimatization medium plates were made as follows: Peptone 10 g, glucose (20 g, 12 g, 4 g, and 0 g, respectively), agar 15 g, pH adjusted to 5.4-5.8, and filled with distilled water to 1000 mL which was distributed into 250 mL. Sterilization was then performed at 121° C. for 20 min. The medium was heated to melt before use. When the temperature of the medium was cooled down to 50-56° C., 200 mg of ethylene oxide was added by using a sealed injection needle to obtain four ethylene oxide degradation acclimatization medium plates containing different concentrations of carbon source (50%, 30%, 10%, 0%, respectively), named as ethylene oxide degradation acclimatization medium plate A, ethylene oxide degradation acclimatization medium plate B, ethylene oxide degradation acclimatization medium plate C, and ethylene oxide degradation acclimatization medium plate D, respectively.
# (§2) The ethylene oxide-tolerant bacteria were streak-inoculated on Ethylene Oxide Degradation Acclimatization medium A, and cultured at a constant temperature of 37° C. for 48 h; a single colony having a largest radius was picked for further inoculation on Ethylene Oxide Degradation Acclimatization medium B, and cultured at a constant temperature of 37° C. for 48 h; a single colony having a largest radius was picked for further inoculation on Ethylene Oxide Degradation Acclimatization medium C, and cultured at a constant temperature of 37° C. for 48 h; a single colony having a largest radius was picked for further inoculation on Ethylene Oxide Degradation Acclimatization medium D, and cultured at a constant temperature of 37° C. for 48 h; a single colony having a largest radius was picked and preserved on an agar medium bevel containing corresponding nutritional components in Ethylene Oxide Degradation Acclimatization medium D, to obtain ethylene oxide-degrading strains. Growth situation of the strains on the ethylene oxide degradation acclimatization medium plates A, B, C, and D are as shown in Table 1.
# [3] = Ethylene oxide tolerance acclimatization: growth on medium plates with increasing ethylene oxide; design: key: + normal growth; ± low growth; settings: Example 3, carbon source 100%
# Procedure: as §1, with “tolerance” for “degradation”, “40” for “(20”, “g,” for “g, 12 g, 4 g, and 0 g, respectively),”, “C., 25 mg, 50 mg, 125 mg, and” for “C.,”, “added, respectively,” for “added”, “ethylene oxide (100 mg/L, 200 mg/L, 500 mg/L, and 800 mg/L,” for “carbon source (50%, 30%, 10%, 0%,”
# as §2, with “The purified bacteria having a potential for degrading” for “The”, “oxide” for “oxide-tolerant bacteria”, “ethylene oxide tolerance acclimatization” for “Ethylene Oxide Degradation Acclimatization”, “h,” for “h; a single colony having a largest radius was picked and preserved on an agar medium bevel containing corresponding nutritional components in Ethylene Oxide Degradation Acclimatization medium D,”, “oxide-tolerant bacteria.” for “oxide-degrading strains.”, “tolerance” for “degradation”
substance,measurement,setting,value
Lactobacillus,EO (400 mg/L)/C (0%) Degradation rate (%) After Acc.,"[1]; EO 400 mg/L, strain after acclimatization",75.96%
same,EO (400 mg/L)/C (0%) Degradation rate (%) Before Acc.,"[1]; EO 400 mg/L, strain before acclimatization",17.32%
same,EO (800 mg/L)/C (0%) Degradation rate (%) After Acc.,"[1]; EO 800 mg/L, strain after acclimatization",64.83%
same,EO (800 mg/L)/C (0%) Degradation rate (%) Before Acc.,"[1]; EO 800 mg/L, strain before acclimatization",6.89%
same,"Growth, EO (800 mg/L)/ C (%) 0 %","[2]; Example 3, carbon source 0%",+
same,"Growth, EO (800 mg/L)/ C (%) 10 %","[2]; Example 3, carbon source 10%",+
same,"Growth, EO (800 mg/L)/ C (%) 30 %","[2]; Example 3, carbon source 30%",+
same,"Growth, EO (800 mg/L)/ C (%) 50 %","[2]; Example 3, carbon source 50%",+
same,"Growth, C (100%)/EO(mg/L) 100",[3]; EO 100 mg/L,+
same,"Growth, C (100%)/EO(mg/L) 200",[3]; EO 200 mg/L,+
same,"Growth, C (100%)/EO(mg/L) 500",[3]; EO 500 mg/L,+
same,"Growth, C (100%)/EO(mg/L) 800",[3]; EO 800 mg/L,+
